The values below come from patent US10047112B2, “Fluorescent labeled inhibitors” (priority 2014, dated 2018).

Structures are written as SMILES. pIC50: −log10 of the molar value. Like-named read-outs stand apart in the source and are kept apart here. Where only a bound is given, the exact number is not on record here.

Series [1] has as its system M. tb H37Rv-GFP. Put plainly: microbe, parasite or virus in culture. The note with it: Mycobacterium tuberculosis, 120 h, read-out: Extracellular growth IC50. Type of series: cell-based.
Series [2] deals with M. tb H37Rv-GFP. Put plainly: microbe, parasite or virus in culture. Type of series: cell-based. To be noted: Mycobacterium tuberculosis, RAW264.7, 120 h, read-out: Intracellular macrophage growth IC50.
The nature of another series: in vitro. To be noted: mouse.

Turning to `CCc1cc(C(N)=S)ccn1` [Ethionamide], the pIC50 with M. tb H37Rv-GFP [1] and in the series on M. tb H37Rv-GFP [2] was 5.22 each time. This molecule returned a CC50 in the series “in vitro” of 120 µM.

As to `NNC(=O)c1ccncc1` [Isoniazid], the pIC50 with M. tb H37Rv-GFP [1] and with M. tb H37Rv-GFP [2] was 5.92 throughout. Also, the CC50 in “in vitro” was > 150 µM.

With `CO[C@H]1/C=C/O[C@@]2(C)Oc3c(C)c(O)c4c(O)c(c(/C=N/N5CCN(C)CC5)c(O)c4c3C2=O)NC(=O)/C(C)=C\C=C\[C@H](C)[C@H](O)[C@@H](C)[C@@H](O)[C@@H](C)[C@H](OC(C)=O)[C@@H]1C` [Rifampin], the values for the negative-log IC50 (pIC50) in the series on M. tb H37Rv-GFP [1] and with M. tb H37Rv-GFP [2] were 8.00 and 5.54, respectively. In “in vitro”, the CC50 came out at 24 µM.

The pIC50 is −log10 of the IC50, conventionally taken in molar units.
